# Measurements reported in patent US8361802B2, “Fluorescent ozone sensor” (University of Pittsburgh—Of the Commonwealth System of …, priority 2009, dated 2013).
# Experiments:
# [1] = Ozone detection in human serum; details: human serum diluted in pH 7 buffer, ozone ~5 μM
# Description: FIG. 2E illustrates Ozone detection in human serum, wherein Left Sample: 4, no ozone; Right Sample: 4, + ozone.
# One embodiment of the present invention utilized sensor 4 to detect ozone in human serum. […] One possible explanation may be due to the small Stokes shift that is found in fluorescein and its derivatives, which makes these fluorophores more prone to influences of scattering and interference.
# Ozone detection in human serum. Human serum (1.0 mL) was diluted in pH 7 buffer ([PO4^3−]=5 mM) (3.0 mL). Solution A (5.0 μL, [compound 4]final=12.5 μM) was added to the resulting human serum mixture, and the samples were exposed to ozone (˜5 μM) at 24° C. followed by 1 hour incubation at 37° C. before fluorescence measurement. The experiment was performed in triplicate with an illustration of one of the tests represented in FIG. 2E.
# [2] = Ozone detection method, fluorescence turn-on of sensor in aqueous buffer / cell culture media
# Description: In order to develop a fluorescent method amenable to both biological and atmospheric detection, pH 7 buffer ([PO4^3−]=5 mM) is chosen to perform the conversion of sensor 4, such as homoallyl ether, to fluorescent compound 7. A solution of sensor 4 in 5:95 MeOH/pH 7 buffer at 24° C. is exposed to ozone, incubated at 37° C. for 1 hour to facilitate β-elimination, and formation of fluorescent compound 7 is observed (signal-to-background (S/B)=Sample B (28)/Sample A (0.35)=80) (FIG. 2a). For an ozone detection method in the presence of cells, the ozonolysis reaction is performed in a mixture of pH 7 buffer and RPMI-1640 cell culture media (3:1).
# Ozone detection method. Solutions of compound 4 ([4]final=12.5 μM) in 5:95 MeOH/pH 7 buffer ([PO4^3−]=5 mM) solution (4.0 mL) were prepared, and the samples were exposed to ozone at 24° C. followed by 1 hour incubation at 37° C. before fluorescence measurement (except for the ambient air experiments). The concentration of ozone was 5 μM for these studies. Fluorescence spectra were recorded in a 1×1-cm disposable cuvette on a Jobin Yvon FluoroMax-3 spectrometer under the control of a Windows-based PC running FluorEssence software. The samples were excited at 497 nm and the emission intensities were collected at 523 nm. All spectra were corrected for emission intensity using the manufacturer supplied photomultiplier curves.
# Ozone: Solution A (5.0 μL, [compound 4 or compound 8]final=12.5 μM) was added to a mixture of MeOH/pH 7 buffer ([PO4^3−]=5 mM) (5:95) (4.0 mL), and the samples were exposed to ozone (˜5 μM) at 24° C. followed by 1 hour incubation at 37° C. before fluorescence measurement.
smiles,measurement,setting,value
C=CCCOc1cc2oc3cc(=O)c(Cl)cc-3c(-c3ccccc3CO)c2cc1Cl [compound 4],S/B,[1],92
same,"fluorescent intensity at 523 nm, Sample A (no ROS)","[2]; 12.5 μM sensor, 5:95 MeOH/pH 7 buffer, no ozone (background)",0.35 a. u.×10^5
same,"fluorescent intensity at 523 nm, Sample B (ozone)","[2]; 12.5 μM sensor, 5:95 MeOH/pH 7 buffer, ozone at 24° C. then 1 hour at 37° C.",28 a. u.×10^5
same,signal-to-background (S/B),"[2]; 5:95 MeOH/pH 7 buffer, ozone at 24° C. then 1 hour at 37° C.",80
same,signal-to-background (S/B),[2]; mixture of pH 7 buffer and RPMI-1640 cell culture media (3:1),104
